Data set [1] deals with MDA-MD-453 cells. The data set is described as follows: Cell proliferation inhibitory activity per human breast cancer cell line, MDA-MD-453. Type of data set: cell-based. The conditions noted are these: as treatment amount increased, FIG. 10B. As to the method:
(§1) To measure cell proliferation, SKBR3, T47D, HCC1428, MDA-MD-453, MDA-MB-231, MDA-MB-468, HCC38, HCC70, and HCC1937 cells were plated in respective 96-well dishes (5×10^3 cells/well). For cell stabilization, these cells were incubated in a cell incubator at 36.5° C. for 24 hours, and then treated with a drug, and the number of live cells was measured using an IncuCyte ZOOM live cell analysis system (Essen Bioscience, Ann Arbor, Mich., USA) at intervals of 4 hours.

Data set [2] has as its system MDA-MB-468 cells. The data set can be described thus: Cell proliferation inhibitory activity per human breast cancer cell line, MDA-MB-468. Type of data set: cell-based. The note with it: as treatment amount increased, FIG. 10B. Here is the method:
as §1

Data set [3] concerns T47D cells. The data set is described as follows: Cell proliferation inhibitory activity per human breast cancer cell line, T47D. The note with it: as treatment amount increased, FIG. 10A. Type of data set: cell-based. Here is the method:
as §1

The subject of data set [4] is MDA-MB-231 cells. The data set can be described thus: Cell proliferation inhibitory activity per human breast cancer cell line, MDA-MB-231. The conditions noted are these: as treatment amount increased, FIG. 10B. In kind it is cell-based. As to the method:
as §1

Data set [5] relates to SKBR3 cells. The data set can be described thus: Cell proliferation inhibitory activity per human breast cancer cell line, SKBR3. Type of data set: cell-based. The conditions noted are these: as treatment amount increased, FIG. 10A. As to the method: as §1
The subject of data set [6] is HCC1428 cells. The data set is described as follows: Cell proliferation inhibitory activity per human breast cancer cell line, HCC1428. Type of data set: cell-based. The note with it: as treatment amount increased, FIG. 10A. As to the method:
as §1

Data set [7] relates to HCC70 cells. The data set is described as follows: Cell proliferation inhibitory activity per human breast cancer cell line, HCC70. The conditions noted are these: as treatment amount increased, FIG. 10C. Type of data set: cell-based. As to the method: as §1
For data set [8], the system named is HCC38 cells. The data set is described as follows: Cell proliferation inhibitory activity per human breast cancer cell line, HCC38. In kind it is cell-based. The conditions noted are these: as treatment amount increased, FIG. 10C. Here is the method: as §1
The subject of data set [9] is HCC1937 cells. The data set is described as follows: Cell proliferation inhibitory activity per human breast cancer cell line, HCC1937. The conditions noted are these: as treatment amount increased, FIG. 10C. In kind it is cell-based. As to the method: as §1
Data set [10] concerns MCF-7 cells. The data set can be described thus: Real-time cell proliferation assay (IncuCyte ZOOM), MCF-7. In kind it is cell-based, human. The conditions noted are these: MCF-7 normal (control) breast cancer cells; FIG. 2. As to the method: (§2) An MCF-7 cell line was sub-cultured in high glucose Dulbeccos Modified Eagle's Medium (DMEM) containing 10% fetal bovine serum, 50 U/ml of penicillin, and 50 μg/ml of streptomycin in an incubator supplied with 5% CO2 at 37° C. to be used for experiments. A TAMR-MCF-7 cell line was cultured in high glucose Dulbeccos Modified Eagle's Medium (DMEM) containing 10% charcoal-stripped fetal bovine serum, 3 μM 4-OH-tamoxifen (Sigma-Aldrich, Mo., USA), 50 U/ml of penicillin, and 50 μg/ml of streptomycin.
(§3) To measure cell proliferation, cells were plated in a 96-well dish (5×10^3 cells/well). After drug treatment, the number of live cells was measured using an IncuCyte ZOOM live cell analysis system (Essen Bioscience, Ann Arbor, Mich., USA) at intervals of 4 hours.
(§4) Tamoxifen-resistant breast cancer cells (TAMR-MCF-7) and/or control breast cancer cells (MCF-7) were treated with 2,4,6-trihydroxyacetophenone (THA), and then it was confirmed whether Plk1 activity and cell proliferation were inhibited, using the method of Example 1.

In data set [11] the test system is TAMR-MCF-7 cells. The data set is described as follows: Real-time apoptosis analysis with caspase-3/7 fluorescent substrate. In kind it is cell-based, human. The note with it: caspase-3/7 selective fluorescent substrate, FIG. 6. Here is the method: To measure apoptosis, cells were plated in a 96-well dish (5×10^3 cells/well). The cells were pre-treated with the IncuCyte ZOOM™ 96-well Caspase-3/7 apoptosis assay reagent for 3 hours and treated with a drug, and then the degree of fluorescence expression was measured using an IncuCyte ZOOM™ live cell analysis system (Essen Bioscience, Ann Arbor, Mich., USA) at intervals of 4 hours.

For data set [12], the system named is TAMR-MCF-7 cells. The data set is described as follows: Cell cycle analysis by flow cytometry. In kind it is cell-based, human. The conditions noted are these: FIG. 4, FIG. 5. Here is the method:
To measure the cell cycle distribution, cells were plated in a 100 mm dish (5×10^5 cells/well). The cells were fixed with PBS at 4° C., refrigerated in 70% EtOH at 4° C., and cultured for 24 hours. After removing the 70% EtOH, the cells were stained with propidium iodide (PI)/Triton X-100/DNAse-free RNAse A at 37° C. for 15 minutes. 20,000 cells per experimental group were analyzed using an FACS-Calibur™ (BD Biosciences, CA, USA) machine.
(A flow cytometer gives signals particle by particle.)

Data set [13] deals with TAMR-MCF-7 cells. The data set can be described thus: Real-time cell proliferation assay (IncuCyte ZOOM), TAMR-MCF-7. The note with it: TAMR-MCF-7 tamoxifen-resistant breast cancer cells; FIG. 2, FIG. 3. Type of data set: cell-based, human. As to the method: as §2, §3, §4
Data set [14] relates to human breast cancer cell line panel. The data set is described as follows: THA reactivity according to Plk1 expression differences per human breast cancer cell line. In kind it is cell-based. The conditions noted are these: 11 breast cancer cell lines classified as low, medium, high Plk1 expression; FIGS. 11A and 11B.
For data set [15], the system named is TAMR-MCF-7 cells. The data set can be described thus: Tamoxifen-resistant breast cancer cell xenograft mouse model. In kind it is in vivo, BALB/c-nu mice. As to the method: In all experiments, 6-week-old female BALB/c-nu mice were raised for 1 week at the Research Center for Animal Experiments in the College of Pharmacy of the Seoul National University at a humidity of 55±5% and a temperature of 22±2° C. and under controlled ventilation conditions and adapted to the environment, and then used in the experiments according to randomized block design, and light/dark cycles were adjusted to 12 hours.
Animal experiments were carried out in accordance with the Experimental Animals Ethics Guidelines. TAMR-MCF-7 cells (5×10^6 cells) were transdermally injected into the left mammary gland of nude mice, and tumor sizes were measured using a caliper twice a week. Tumor volume was calculated by the following formula: Tumor volume=length×width^2. Five weeks after cell transplantation, the mice were euthanized using carbon dioxide gas and the tumors were extracted and weighed.
THA was intraperitoneally administered to a tamoxifen-resistant breast cancer cell-transplanted mouse model every day for 2 weeks at a dose of 6 mg/kg based on a dose known to be effective for bile secretion in the liver. Tumor sizes and weights were measured twice a week during the administration period, and after administration was completed, tumors were extracted, and then the extracted tumor tissues were weighed. PCNA, which is a cell proliferative index, and TUNEL, which is an apoptotic index, were evaluated in the tumor tissues by immunohistochemistry staining, and some tissues were pulverized to quantify cdc25c, which is a downstream signal of Plk1, as a Plk1 activity index, and an increase or decrease in cdc25c expression was confirmed by western blotting.
In addition, THA was administered to a tamoxifen-resistant breast cancer cell-transplanted mouse model at a dose of 10 mg/kg, 30 mg/kg, or 100 mg/kg using an oral zonde needle every day for 2 weeks.

The test system of data set [16] is Polo-like kinase 1 (Plk1). The data set is described as follows: Western blotting and immunocytochemistry of Plk1 downstream signals (cdc25c, cyclin B1) in tamoxifen-resistant breast cancer cells. Type of data set: cell-based, human. Here is the method:
Sodium dodecyl sulfate-polyacrylamide gel electrophoresis (SDS-PAGE) was performed using a gel electrophoresis apparatus (Mighty Small SE250, Hoefer Scientific Instruments, San Francisco). A cell lysate fraction was diluted in a sample dilution buffer [63 mM Tris (pH 6.8), 10% glycerol, 2% SDS, 0.0013% bromophenol blue, and 5% β-mercaptoethanol], and then electrophoresis was performed thereon in an electrode buffer (15 g of Tris, 72 g of […], and 5 g of SDS included in a 1 L solution) using a 8% to 12% gel. The electrophoresed gel was used to transfer proteins to a nitrocellulose membrane at 190 mAmps for 70 minutes in a transfer buffer (25 mM Tris, 192 mM […], and 20% v/v methanol (pH 8.3)) using a transfer electrophoresis apparatus. The nitrocellulose membrane was reacted with a primary antibody, and then reacted with horseradish peroxidase-conjugated goat anti-rabbit IgG and horseradish peroxidase-conjugated goat anti-mouse IgG as secondary antibodies for 6 hours, followed by color development using an ECL detection system (ECL chemiluminescence system, Amersham, Gaithersberg, Mass.).
To measure fluorescence expression, cells were plated in a 6-well dish (5×10^5 cells/well). Fluorescence was conjugated to cdc25c and cyclin B1 antibodies using SiteClick™ Qdot antibody labeling kits (Thermo Scientific, IL, USA), and fluorescence-conjugated cdc25c and cyclin B1 antibodies were treated in a 6-well dish, and then expression was observed through a fluorescence microscope.
as §4
Background: A western blot detects proteins with antibodies after separation by electrophoresis.

[17] abbreviates: intraperitoneal 6 mg/kg, immunohistochemistry, FIGS. 7D and 7E.
Where [18] appears, read: tamoxifen-resistant breast cancer cells, western blotting and immunocytochemistry, FIG. 1.

In the case of `CC[C@@H]1C(=O)N(C)c2cnc(Nc3ccc(C(=O)NC4CCN(C)CC4)cc3OC)nc2N1C1CCCC1` [BI-2536, reference compound], the cell proliferation result in [1], in data set [2], in [3], in data set [4], in data set [5] and in data set [6] was “cell proliferation was inhibited” throughout. Also, the cell proliferation result in [7], in [8] and in [9] was “cell proliferation was inhibited” throughout.
Consider `CC(=O)c1c(O)cc(O)cc1O` [THA, 2,4,6-trihydroxyacetophenone], for which the cell proliferation entry in data set [1], in data set [2], in data set [3], in data set [4], in [5] and in data set [6] was “cell proliferation was inhibited” in each case. Besides, the cell proliferation entry in data set [7], in [8] and in data set [9] was “cell proliferation was inhibited” in each case. The “inhibition of cell proliferation” value was “inhibited cell proliferation” in data set [10] and “more strongly inhibited cell proliferation” in data set [13]. Further, in data set [11], the apoptotic index result is on record as “significantly increased”. Further, in data set [12], the cell cycle inhibition entry is on record as “S phase arrest”. For the same compound, in [14], the “selectivity according to Plk1 expression (correlation between Plk1 expression and IC50 of each cell line)” value was “selectively acts on breast cancer cells with high Plk1 expression”. For the same compound, the tumor size result in [15] (intraperitoneal 6 mg/kg every day for 2 weeks, compared to control, FIG. 7A) is “significantly reduced”; in data set [15] (oral 10 mg/kg, 30 mg/kg, or 100 mg/kg every day for 2 weeks, compared to control, FIG. 7G), “significantly reduced”. The tumor weight entry in data set [15] (intraperitoneal 6 mg/kg every day for 2 weeks, compared to control, FIG. 7C) was “significantly reduced”. The “body weight of each mouse” value in data set [15] (intraperitoneal 6 mg/kg every day for 2 weeks, FIG. 7B) was “maintained at a similar level”; in [15] (oral 10 mg/kg, 30 mg/kg, or 100 mg/kg every day for 2 weeks, FIG. 7I), “maintained at a similar level”. Moreover, in data set [15] (setting [17]), the “PCNA, cell proliferative index, in tumor tissue” value is given as “reduced”. In addition, in data set [15] (setting [17]), the “TUNEL, apoptotic index, in tumor tissue” value is “significantly increased”. In [15] (intraperitoneal 6 mg/kg, western blotting, FIG. 7F), the “cdc25c expression in tumor tissue (Plk1 activity index)” value is “significantly inhibited”. The Plk1 inhibitory effect result in data set [16] (concluded from cdc25c decrease and cyclin B1 increase) is listed as “had a Plk1 inhibitory effect”. Moreover, the “compensatory cyclin B1 expression” value in data set [16] (setting [18]) is recorded as “increased compensatory cyclin B1 expression”. Besides, in data set [16] (setting [18]), the “expression of cdc25c, downstream signal of Plk1” value is listed as “reduced the expression of cdc25c”.

The values are drawn from patent publication US11793772B2, “Pharmaceutical composition comprising THA as active ingredient for treating breast cancer” (KOREA UNITED PHARM. INC., priority 2016, dated 2023).
